Counter-ions that a name gives are not always drawn.
Experiments:
[1] = exposure of crystalline forms to water vapour; type: physicochemical; settings: for water content after exposure to moisture (Karl-Fischer): 75% relative humidity, 3 days, product is Form IV
Protocol: The resulting material contains about 4% water (i.e. about 1 mole) and is believed to be a hydrate. This change is reversible, so that Form IV salt may be converted to Form I salt by, for example, drying in vacuo over a desiccating agent such as phosphorus pentoxide.
If crystalline Form III material is treated in this way, the crystal habit of the product appears to be retained throughout the sequence of transformations. Form III salt may also be converted to Form I salt by heating a suspension of Form III material in nearly boiling methanol; this transformation […] in loss of crystallinity where crystalline Form III material is used.
Sample of Form I and Form III sodium 3-carbamoyloxymethyl-7-[2-(fur-2-yl)-2-methoxyiminoacetamido]ceph-3-em-4-carboxylate (syn isomer), prepared according to Method (iii) of Example 7 and Example 9 respectively, were exposed to moisture (75% relative humidity) for 3 days to give the title compound. The IR and NMR spectra of the products conformed to those of an authentic sample. Karl-Fischer water analysis gave, respectively, 4.0 and 3.85% (1 mole H2 O is equivalent to 3.9%).

Haemophilus influenzae = experiment: antibacterial activity; type: cell-based
Neisseria species = experiment: antibacterial activity; type: cell-based; settings: in vitro and in vivo tests
Diplococcus pneumoniae = experiment: antibacterial activity; type: cell-based; settings: in vitro and in vivo tests
[2] = serum levels following parenteral administration, humans; type: in vivo; settings: human subjects
Enterobacter species = experiment: antibacterial activity; type: cell-based; settings: in vitro and in vivo tests
serum binding = type: in vitro ADME
Staphylococci = experiment: antibacterial activity; type: cell-based; settings: in vitro and in vivo tests
Staphylococcus aureus = experiment: antibacterial activity; type: cell-based; settings: in vitro and in vivo tests
[3] = stability in the body and urinary recovery, animals; type: in vivo
β-lactamases = experiment: stability to β-lactamases produced by gram-negative organisms; type: cell-based; settings: evidenced by in vitro activity against β-lactamase-producing strains of Escherichia, Enterobacter and Klebsiella species
Klebsiella species = experiment: antibacterial activity; type: cell-based; settings: in vitro and in vivo tests
Clostridia species = experiment: antibacterial activity; type: cell-based; settings: in vitro and in vivo tests
Proteus species = experiment: antibacterial activity; type: cell-based; settings: in vitro and in vivo tests
Neisseria gonorrhoeae = experiment: in vitro antibacterial activity; type: cell-based
Streptococcus pyogenes = experiment: antibacterial activity; type: cell-based; settings: in vitro and in vivo tests
Neisseria meningitidis = experiment: in vitro antibacterial activity; type: cell-based
[4] = serum levels following parenteral administration, animals; type: in vivo; settings: animal subjects
Streptococcus vilidans = experiment: antibacterial activity; type: cell-based; settings: in vitro and in vivo tests
Escherichia coli = experiment: antibacterial activity; type: cell-based; settings: in vitro and in vivo tests
[5] = system: gram-positive and gram-negative microorganisms; experiment: antibacterial activity against gram-positive and gram-negative microorganisms; type: cell-based
[6] = stability in the body and urinary recovery, humans; type: in vivo, human
mammalian esterases = experiment: resistance to esterases; type: in vitro ADME
solubility of base salts = type: physicochemical; settings: e.g. alkali metal salts
[7] = distribution in the body on administration by injection; type: in vivo

In the case of CO/N=C(\C(=O)N[C@@H]1C(=O)N2C(C(=O)O)=C(COC(N)=O)CS[C@H]12)c1ccco1 [Form I, Form I Sodium (6R,7R)-3-Carbamoyloxymethyl-7-[2-(fur-2-yl)-2-methoxyiminoacetamido]ceph-3-em-4-carboylate (syn isomer)], the “water content after exposure to moisture (Karl-Fischer)” value [1] is reported as 4.0%, the “change of form on exposure to water vapour” value ([1]; e.g. 75% relative humidity) is reported as “undergo a change of crystalline form leading generally to Form IV salt” and the “water absorption on exposure to water vapour (hygroscopicity)” value (from here on “water absorption on exposure”) ([1]; e.g. 75% relative humidity) is reported as “absorb further water”. The “water content of material resulting from exposure to water vapour” value ([1]; e.g. 75% relative humidity, material generally Form IV) was “about 4%”.
With CO/N=C(\C(=O)N[C@@H]1C(=O)N2C(C(=O)O)=C(COC(N)=O)CS[C@H]12)c1ccco1 [Form II, Form II Sodium (6R,7R)-3-Carbamoyloxymethyl-7-[2-(fur-2-yl)-2-methoxyiminoacetamido]ceph-3-em-4-carboxylate (syn isomer)] the “water absorption on exposure” value ([1]; e.g. 75% relative humidity) was “does not absorb further water”.
For CO/N=C(\C(=O)N[C@@H]1C(=O)N2C(C(=O)O)=C(COC(N)=O)CS[C@H]12)c1ccco1 [Form III, Form III Sodium (6R,7R)-3-Carbamoyloxymethyl-7-[2-(fur-2-yl)-2-methoxyiminoacetamido]ceph-3-em-4-carboxylate (syn isomer)], the “water content after exposure to moisture (Karl-Fischer)” value [1] was 3.85%, the “change of form on exposure to water vapour” value ([1]; e.g. 75% relative humidity) was “loses all the dioxan present and forms Form IV material” and the “water absorption on exposure” value ([1]; e.g. 75% relative humidity) was “hygroscopic”.
With CO/N=C(\C(=O)N[C@@H]1C(=O)N2C(C(=O)O)=C(COC(N)=O)CS[C@H]12)c1ccco1 [compound (II), (6R,7R)-3-carbamoyloxymethyl-7-[2-(fur-2-yl)-2-methoxyiminoacetamido]ceph-3-em-4-carboxylic acid (syn isomer)] the “in vitro activity against strains of Haemophilus influenzae” value (Haemophilus influenzae; in vitro) was “particularly high in vitro activity”, the “activity against Haemophilus influenzae” value (Haemophilus influenzae; in vitro and in vivo tests) was “active” and the “activity against Neisseria species” value (Neisseria species) was “active”. The “activity against Diplococcus pneumoniae” value (Diplococcus pneumoniae) was “active”, the serum levels [2] was “high serum levels” and the “activity against Enterobacter species” value (Enterobacter species) was “active”. For the same compound, the serum binding (serum binding) was “low serum binding”, the “activity against Staphylococci” value (Staphylococci) was “active” and the “activity against Staphylococcus aureus” value (Staphylococcus aureus) was “active”. The “recovery of unchanged compound in the urine” value [3] was “high levels”, the “stability in the body” value [3] was “stable” and the “stability to β-lactamases produced by a range of gram-negative organisms” value (β-lactamases) was “very high stability”. For the same compound, the “activity against Klebsiella species” value (Klebsiella species) was “active”, the “activity against Clostridia species” value (Clostridia species) was “active” and the “activity against Proteus species” value (Proteus species) was “active”. The “in vitro activity against strains of Neisseria gonorrhoeae” value (Neisseria gonorrhoeae) was “particularly high in vitro activity”, the “activity against Streptococcus pyogenes” value (Streptococcus pyogenes) was “active” and the “in vitro activity against strains of Neisseria meningitidis” value (Neisseria meningitidis) was “particularly high in vitro activity”. The serum levels [4] was “high serum levels”, the “activity against Streptococcus vilidans” value (Streptococcus vilidans) was “active” and the “activity against Escherichia coli” value (Escherichia coli) was “active”. For the same compound, the “activity against gram-positive and gram-negative microorganisms” value ([5]; in vitro and in vivo tests) was “active”, the “in vitro activity at high inoculum levels” value ([5]; inoculum levels as high as 10^7 organisms/ml) was “good in vitro activity” and the “recovery of unchanged compound in the urine” value [6] was “high levels”. For the same compound, the “stability in the body” value [6] was “stable” and the “resistance to the action of mammalian esterases” value (mammalian esterases) was “resistant”.
With CO/N=C(\C(=O)N[C@@H]1C(=O)N2C(C(=O)O)=C(COC(N)=O)CS[C@H]12)c1ccco1 [sodium salt, sodium (6R,7R)-3-carbamoyloxymethyl-7-[2-(fur-2-yl)-2-methoxyiminoacetamido]ceph-3-em-4-carboxylate (syn isomer)] the solubility (solubility of base salts) was “highly soluble” and the “distribution in the body” value [7] was “rapid distribution”.

— patent publication US3974153A, “7-Hydrocarbonoxy imino-acetamido-3-carbamoyloxy methylceph-3-em-4 carboxylic acids” (Glaxo Laboratories Limited, priority 1971, dated 1976)
